Paper PMC3671111, “A Phase I, open-label, randomized, crossover study in three parallel groups to evaluate the effect of Rifampicin, Ketoconazole, and Omeprazole on the pharmacokinetics of THC/CBD oromucosal spray in healthy volunteers” (SpringerPlus, 2013)
“And” between values parts separate entries of the source, which are not always exact repeats. Equal values may be shown once. Marks after values point to notes of the source that are not given here.

Columns and labels:
[1] = Phase I drug-drug interaction PK, Group 2: THC/CBD spray alone or with ketoconazole, plasma by GC-MS; details: for AUC(0-inf) / AUC(0-t) / CL/F / Cmax / Kel / Varea/F / t½ / Tmax: plasma; for AUC(0-inf) / AUC(0-t) / CL/F / Cmax / Kel / Varea/F / t½: mean (SD); for Tmax: median (range)
Method: (§1) Subjects received rifampicin on Days 1-9. […] Subjects received ketoconazole on Days 1-4.
(§2) Blood samples were collected at specified times and stored on ice (except rifampicin PK samples which were stored in iced water) prior to processing and storage. Plasma samples were separated by centrifugation (approximately 2500 rpm × 15 minutes at 4°C). Samples were stored in 4 mL amber glass screw top glass vials with PTFE lined screw caps labelled with Guys Drug Research (Quintiles Limited) labels. The aliquots were stored in clearly labelled containers in a freezer set at or below -20°C, until shipped for assay. Samples were shipped on dry ice at the appropriate time-points.
(§3) The assay validation was undertaken by Advanced Bioanalytical Service Laboratories (London, UK), who developed the technique after reviewing the literature, which was based on the methodology adopted by three different groups (Foltz et al. [1983]; Goodall & Basteyns [1995]; Kemp et al. [1995]), and designed with reference to FDA guidelines for industry (FDA Guidance for Industry [2012]). The method utilised protein precipitation, solvent extraction and derivatisation for the sample preparation and then sample analysis by capillary gas chromatography and detection by a mass spectrometer (GC-MS). The validation procedure investigated the calibration model with the best regression fit over the concentration range 0.1 - 100 ng/mL for CBD, THC and 11-OH-THC, as well as precision and accuracy of the method, stability, carry-over, and specificity.
(§4) Human plasma from healthy volunteers was used to prepare the standards and quality control (QC) samples, with analytes extracted using hexane/ethyl acetate (7:1 ratio), derivatised with N,O-Bis(trimethylsilyl)trifluoroacetamide. Analytic grade THC (Sigma, UK), CBD (Sigma, UK) and 11-OH-THC (Radian International and Cerillant, UK) were obtained, and three sets of CBD, THC and 11-OH-THC were used to support the study. Deuterated THC-d3 (Sigma, UK) was used as the internal standard. The GC-MS equipment was a Hewlett Packard 6890 Gas Chromatograph attached to a Hewlett Packard 5973 Mass Selective Detector. Data handling was carried out using an MS Chemstation System and the peak area ratio of the analytes to the internal standard was calculated in Excel (2000). The concentrations were calculated from the ratio data using least squares ln(y) on ln(x) regression performed in Excel (2000), and were then checked manually. Regression analysis was undertaken to find the regression model that best described the calibration data (for details, see ([Miller & Miller 1992])).
(§5) A 0.5 mL aliquot of test sample, QC or blank plasma was placed into a test tube. The blank plasma was spiked with 50 μL of the appropriate standard solution to produce the calibration standards. 50 μL of the internal standard was added to each test tube. The samples were then diluted by the addition of 500 μL of 0.1% (w/v) ascorbic acid and the protein precipitated by the addition of 1.0 mL of acetonitrile. The proteins were removed by centrifugation and the supernatant concentrated to 1 mL using nitrogen at 50 °C. The samples were then basified by the addition of 300 μL of 5M sodium hydroxide and the analytes extracted by the addition of 2.0 mL of 7:1 hexane:ethyl acetate. After mixing for 16 minutes the tubes were centrifuged and the top layer transferred into clean 3 dram vials. The solvent was removed using nitrogen at 70 °C and the dried extract resuspended in 100 μL of BSTFA and transferred to microvials, capped and placed at 70 °C for 30 minutes to derivatise the analytes. The microvials were then cooled and loaded onto the autosampler tray for analysis where 1 μL was injected onto the GC-MS system.

[2] = Phase I drug-drug interaction PK, Group 1: THC/CBD spray alone or with rifampicin, plasma by GC-MS; details: for AUC(0-inf) / AUC(0-t) / CL/F / Cmax / Kel / Varea/F / t½ / Tmax: n = 12, plasma; for AUC(0-inf) / AUC(0-t) / CL/F / Cmax / Kel / Varea/F / t½: mean (SD); for Tmax: median (range)
Method: as §1, §2, §3, §4, §5

[3] = Phase I drug-drug interaction PK, Group 3: THC/CBD spray alone or with omeprazole, plasma by GC-MS; details: for AUC(0-inf) / AUC(0-t) / CL/F / Cmax / Kel / Varea/F / t½ / Tmax: n = 12, plasma; for AUC(0-inf) / AUC(0-t) / CL/F / Cmax / Kel / Varea/F / t½: mean (SD); for Tmax: median (range); for Cmax and AUC % Co-efficient of Variation (CV%) range: inter-subject variability
Method: as §1, §2, §3, §4, §5

[4] = Ketoconazole and THC/CBD spray vs THC/CBD spray alone, no-interaction range 0.80 to 1.25
[5] = THC/CBD spray 4 sprays and ketoconazole 400 mg at end of 5-day dosing period, n = 11
[6] = THC/CBD spray alone, single dose 4 sprays (10.8/10 mg), ketoconazole group, n = 12
[7] = THC/CBD spray co-administered with ketoconazole vs alone
[8] = Rifampicin and THC/CBD spray vs THC/CBD spray alone, no-interaction range 0.80 to 1.25
[9] = THC/CBD spray 4 sprays and rifampicin 600 mg after repeated daily dosing
[10] = THC/CBD spray alone, single dose 4 sprays (10.8/10 mg), rifampicin group
[11] = THC/CBD spray co-administered with rifampicin vs alone
[12] = Omeprazole and THC/CBD spray vs THC/CBD spray alone, no-interaction range 0.80 to 1.25
[13] = THC/CBD spray 4 sprays and omeprazole 40 mg at end of 6-day dosing period
[14] = THC/CBD spray alone, single dose 4 sprays (10.8/10 mg), omeprazole group
[15] = THC/CBD spray co-administered with omeprazole vs alone

CCCCCc1cc(O)c2c(c1)OC(C)(C)[C@@H]1CCC(C)=C[C@@H]21 [THC, Δ9-tetrahydrocannabinol]
Geometric mean ratio of AUC(0-inf), point estimate [1, 4]: 1.840
Geometric mean ratio of AUC(0-t), point estimate [1, 4]: 1.770
Geometric mean ratio of Cmax, point estimate [1, 4]: 1.252
AUC(0-inf) [1, 5]: 16.76 (13.80) h*ng/mL
AUC(0-t) [1, 5]: 15.38 (13.43) h*ng/mL
CL/F [1, 5]: 920 L/h and 920 (450) L/h
Cmax [1, 5]: 3.36 (1.65) ng/mL
Kel [1, 5]: 0.189 (0.078) h^-1
Varea/F [1, 5]: 5111 (2221) L
t½ [1, 5]: 4.43 (2.19) h
Tmax [1, 5]: 1.75 (1.00-3.00) h
AUC(0-inf) [1, 6]: 9.22 (5.94)^a h*ng/mL
AUC(0-t) [1, 6]: 8.19 (5.67) h*ng/mL
CL/F [1, 6]: 1504 L/h and 1504 (688)^a L/h
Cmax [1, 6]: 2.65 (1.32) ng/mL
Kel [1, 6]: 0.258 (0.092)^a h^-1
Varea/F [1, 6]: 6328 (4164)^a L
t½ [1, 6]: 3.07 (1.31)^a h
Tmax [1, 6]: 1.50 (0.75-6.00) h
% change in mean Tmax [1, 7]: +17%
% change in t1/2 [1, 7]: +44%
Change in mean Cmax ([1]; THC/CBD spray with ketoconazole vs THC/CBD spray alone): +27%
Change in mean CL/F ([1]; co-administered with ketoconazole vs THC/CBD spray alone): -39%
Substrate for the isoenzyme CYP3A4 (conclusion from ketoconazole interaction) ([1]; suggested by increased exposure with ketoconazole): substrates
Geometric mean ratio of AUC(0-inf), point estimate [2, 8]: 0.761
Geometric mean ratio of AUC(0-t), point estimate [2, 8]: 0.711
Geometric mean ratio of Cmax, point estimate [2, 8]: 0.614
AUC(0-inf) [2, 9]: 7.53 (2.99) h*ng/mL
AUC(0-t) [2, 9]: 6.53 (2.70) h*ng/mL
CL/F [2, 9]: 1595 L/h and 1595 (473) L/h
Cmax [2, 9]: 1.88 (1.07) ng/mL
Kel [2, 9]: 0.189 (0.071) h^-1
Varea/F [2, 9]: 10297 (5888) L
t½ [2, 9]: 4.93 (3.91) h
Tmax [2, 9]: 1.75 (1.25-2.57) h
AUC(0-inf) [2, 10]: 9.86 (3.35)^a h*ng/mL
AUC(0-t) [2, 10]: 9.10 (2.98) h*ng/mL
CL/F [2, 10]: 1207 L/h and 1207 (373)^a L/h
Cmax [2, 10]: 2.94 (1.21) ng/mL
Kel [2, 10]: 0.197 (0.093)^a h^-1
Varea/F [2, 10]: 7625 (4326)^a L
t½ [2, 10]: 4.68 (3.42) ^a h
Tmax [2, 10]: 1.01 (0.50-6.02) h
% change in mean t1/2 [2, 11]: +5%
% change in median Tmax [2, 11]: +73%
Change in mean Cmax ([2]; THC/CBD spray with rifampicin vs THC/CBD spray alone): -36%
Change in mean CL/F ([2]; after multiple dose rifampicin treatment vs THC/CBD spray alone): +32%
Geometric mean ratio of AUC(0-inf), point estimate [3, 12]: 0.962
Geometric mean ratio of AUC(0-t), point estimate [3, 12]: 0.964
Geometric mean ratio of Cmax, point estimate [3, 12]: 1.125
AUC(0-inf) [3, 13]: 8.10 (4.78) h*ng/mL
AUC(0-t) [3, 13]: 7.41 (4.75) h*ng/mL
CL/F [3, 13]: 2284 (2520) L/h
Cmax [3, 13]: 2.48 (1.06) ng/mL
Kel [3, 13]: 0.357 (0.218) h^-1
Varea/F [3, 13]: 6052 (3384) L
t½ [3, 13]: 2.37 (0.92) h
Tmax [3, 13]: 1.25 (1.00-1.75) h
AUC(0-inf) [3, 14]: 9.39 (8.81) h*ng/mL
AUC(0-t) [3, 14]: 8.76 (8.62) h*ng/mL
CL/F [3, 14]: 2161 (1990) L/h
Cmax [3, 14]: 2.50 (1.85) ng/mL
Kel [3, 14]: 0.305 (0.109) h^-1
Varea/F [3, 14]: 6889 (5296) L
t½ [3, 14]: 2.65 (1.25) h
Tmax [3, 14]: 1.25 (0.77-3.02) h
Plasma concentrations and PK parameters compared with THC/CBD spray alone ([3]; THC/CBD spray at end of 6-day omeprazole dosing): similar
% change in Tmax [3, 15]: 0%
% change in t1/2 [3, 15]: -11%
Differences in CL/F on co-administration with omeprazole ([3]; THC/CBD spray with omeprazole vs alone): No significant differences
Substrate for the isoenzyme CYP2C19 (conclusion from omeprazole interaction) ([3]; at the clinically relevant dose of THC/CBD spray investigated): not substrates
Cmax and AUC % Co-efficient of Variation (CV%) range ([3]; THC/CBD spray alone, omeprazole group): 74-98%
Cmax and AUC % Co-efficient of Variation (CV%) range ([3]; THC/CBD spray in combination with omeprazole): 43-64%
